In patent publication US10035791B2, “Bicyclic compound and pharmaceutical composition thereof for treating stroke and use thereof” (China Medical University, priority 2016, dated 2018):

Tests used:
ischemic rats = assay: Locomotor activity test; format: in vivo, Sprague-Dawley (SD) rats; details: 1 mg/kg, vs control group, FIGS. 19B to 19D
From the text: The ischemic rats are induced by an ischemia-reperfusion model to simulate transient focal cerebral ischemia in rats. Test animals are male Sprague-Dawley (SD) rats weighing 250-300 g. The rats are anesthetized with chloral hydrate (0.4 g/kg IP) and subjected to cerebral ischemia. The ischemia-reperfusion model is induced by ligations of bilateral common carotid arteries (CCAs) and a right middle cerebral artery (MCA). The bilateral CCAs are clamped with non-traumatic arterial clips, and the right MCA is ligated with an 10-0 nylon suture. After 90 minutes ischemia, the suture on the MCA and the arterial clips on CCAs are removed to allow reperfusion. Core body temperature is monitored with a thermistor probe (Hewlett-Packard Model 21090A probe, Hewlett-Packard Company, Andover, Mass.), and maintained at 37° C. with a heating pad during anesthesia. […]
The locomotor activity test is measured for about 2 hours using VersaMax Animal Activity Monitoring System (Accuscan Instruments), which contains 16 horizontal infrared sensors and 8 vertical infrared sensors. The vertical sensors are situated 10 cm above the chamber floor and the locomotor activity is quantified by a number of a beam broken by the rat's movement in the chamber. Three vertical-movement parameters are measured: (i) vertical activity (ii) vertical time (iii) number of vertical movements by the manufacturer's instruction.

NSCs = assay: Proliferation marker expressions (BrdU, ki-67) of the NSCs, immunofluorescence staining; format: cell-based, mice; details: 0.1, 1, 10 μM for 16 hours, especially 1 μM
Experimental: To prepare the NSCs, after removal of meninges, subventricular zones (SVZ) of lateral ventricles from adult mice brain (4 week-of-age) are aseptically isolated and dissociated as previously described (J Cell Sci 2006; 119, 4467-4474). All steps are operated under sterile conditions. Then, neurosphere culture are prepared in neurobasal (NB) medium (Gibco BRL) supplemented with 2% of B27 (Gibco BRL), 2 mM of L-glutamine (PAN Biotech), 100 U/ml of penicillin/[…] of streptomycin (Gibco BRL). For maintenance and expansion of the cultures, the NB/B27 is further supplemented with 2 μg/mL of heparin (Sigma), 20 ng/mL of FGF-2 (R&D Systems) and 20 ng/mL of EGF (R&D Systems). […] For clonal/low density cultures, primary neurospheres grown at high density are dissociated into a single cell suspension and reseeded into 96-well plates at 100 cells per ml of media and the number of newly formed neurospheres is counted after 7 days. In addition, the Bmi-1 expressions, SOX2 expressions, Nestin expressions, Musashi-1 expressions, BrdU expressions and ki-67 expressions of the newly formed neurospheres are determined by the immunofluorescence staining.
To measure the effect of the administration of the Compound 1 on proliferation marker expressions of the NSCs, the NSCs treated with the Compound 1 are detected by the immunofluorescence staining. […]

Bmi-1 = Bmi-1 expressions in the PCCs with hypoxic treatment, Western blot; format: cell-based, C57BL/6 mice
Experimental: Test cells are primary cortical cultures (PCCs) in this example. The PCCs are prepared from cerebral cortexes of gestation day 17 embryos from C57BL/6 mice as described previously (Cell Death Differ 2008; 15: 143-151). The PCCs are maintained under serum-free conditions in neurobasal medium (Invitrogen), supplemented with B-27 supplement (2%; invitrogen), glutamine (0.5 mM; Sigma Aldrich), glutamate ([…]; Sigma Aldrich), penicillin (100 U/ml) and streptomycin ([…]; Invitrogen). At 4 days in vitro, half of the medium is removed and replaced with fresh medium without glutamate. The cultures are maintained in a humidified incubator at 37° C. with 5% CO2. At 7 days in vitro, the PCCs are used for experimentation.
The relationship between the HIF-1α activation and the Bmi-1 expressions is further analyzed by the Western blot analysis in this example. […] One group of the PCCs is transfected with LV-Bmi-1 to transient express the Bmi-1. Another group of the PCCs is treated with 1 μM of 2-ME2 for 16 hours and then transfected with the LV-Bmi-1. The other group of the PCCs is transfected with LV-GFP as the control group. In FIG. 6B, the PCCs transfected with the LV-Bmi-1 overexpress the Bmi-1. However, the overexpressions of the Bmi-1 are not affected by the pretreatment of the PCCs with 2-ME2. […]

COC(=O)C1=CO[C@@H](O)[C@@H]2C(COC(=O)[C@@H](N)Cc3ccccc3)=CC[C@H]12 [Compound 1]
locomotor activity (vertical activity, vertical time, number of vertical movements) (ischemic rats): significant improvement | proportion of the BrdU+ cells in the neurosphere culture (NSCs; FIG. 12B): increases the proportion | proportion of the ki-67+ cells in the neurosphere culture (NSCs; FIG. 12C): increases the proportion

COc1cc2c(cc1O)CC[C@@H]1[C@@H]2CC[C@]2(C)[C@@H](O)CC[C@@H]12 [Compound 2-ME2, 2-Methoxyestradiol, reference compound]
overexpressions of the Bmi-1 in PCCs transfected with the LV-Bmi-1 (Bmi-1; 1 μM 2-ME2 for 16 hours before transfection, FIG. 6B): not affected | Bmi-1 expressions of the PCCs (Bmi-1; 1 μM 2-ME2 for 16 hours, hypoxic treatment, FIG. 6C): reduced
